Three compounds from ChEMBL document CHEMBL1201862, “PubChem BioAssay data set” (2004) can be followed below.

Activity calls are given as the source filed them.

Assay [1] is described as follows: reduced cellular PGC1a acetyl-lysine signal – cell-based, cherry-picked samples, dose response (AID 720514).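 Note: potency may reflect raised or lowered acetylation signal.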 The class given is functional.
Assay [2] concerns the target G2/mitotic-specific cyclin-B1 (Homo sapiens, UniProt P14635). The assay is described as follows: Counterscreen assay for inhibitors of Wee1 degradation: dose response cell-based assay to identify inhibitors of cyclin B degradation. [Related pubchem assays: 1410, 1321 ]. In kind it is functional.
Assay [3] deals with T1, Rac GTPase-activating protein 1 (Homo sapiens, UniProt Q9H0H5).
T1 sequence (Q9H0H5 whole entry): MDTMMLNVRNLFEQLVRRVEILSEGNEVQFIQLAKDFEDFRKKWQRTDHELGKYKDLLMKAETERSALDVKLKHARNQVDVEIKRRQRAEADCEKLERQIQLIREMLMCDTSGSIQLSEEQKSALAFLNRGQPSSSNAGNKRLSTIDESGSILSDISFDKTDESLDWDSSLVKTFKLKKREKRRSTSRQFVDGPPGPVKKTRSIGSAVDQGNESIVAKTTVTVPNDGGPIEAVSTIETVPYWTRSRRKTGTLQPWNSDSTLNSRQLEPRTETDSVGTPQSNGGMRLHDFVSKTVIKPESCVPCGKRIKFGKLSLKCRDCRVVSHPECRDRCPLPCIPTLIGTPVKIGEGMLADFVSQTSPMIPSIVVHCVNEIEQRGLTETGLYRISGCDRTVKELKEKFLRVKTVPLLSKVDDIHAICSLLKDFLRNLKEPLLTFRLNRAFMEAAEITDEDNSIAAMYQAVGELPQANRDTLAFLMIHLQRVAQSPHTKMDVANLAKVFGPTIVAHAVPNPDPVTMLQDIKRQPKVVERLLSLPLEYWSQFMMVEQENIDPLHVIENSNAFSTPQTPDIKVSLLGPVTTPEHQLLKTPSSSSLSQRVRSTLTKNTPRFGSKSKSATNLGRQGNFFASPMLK
The assay is described as follows: blockers of MgcRacGAP-driven Rac1 GTP hydrolysis – biochemical, ADP Hunter fluorescence, primary and confirmatory, confirmation (AID 624330). In kind it is functional.

Assay [4] has as its target Luciferin 4-monooxygenase (Photinus pyralis, UniProt P08659). The assay is described as follows: inhibition of purified Photinus pyralis luciferase – biochemical, luminescence, dose response (AID 1891).
Assay [5] in a line: HEK-293T viability loss after treatment – luminescence, T-cell screen hits, cytotoxicity control for TCR NF-kB inhibitor project, dose response (AID 489026).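 Note: cells exposed to compound about 14 hours before the viability readout.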 In kind it is functional, cell-based.
Assay [6] is described as follows: loss of viability in HepG2 cells – cell-based, CellTiter-Glo, cherry-picked, cytotoxicity control for Shn3 inhibitor project, dose response (AID 624134). The class given is functional. (In general: In ATP-based viability assays light output follows the ATP content of the culture.)
Assay [7] in a line: viability of PTEN-deleted HCT116 cells – cell-based, HCT116 PTEN knockout, dose response (AID 1047).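 Note: HCT116 colon tumor cells with PTEN knocked out; cells exposed to compound for 60 hours before readout; potency for loss of cell viability measured by luminescence.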 The class given is functional.
Assay [8] is described as follows: Luminescence Cell-Based Dose Response HTS to Identify Inhibitors of 5'UTR Stem-Loop Driven Prion Protein mRNA Translation in H4 Neuroglioblastoma Cells. [Related pubchem assays: 1827 (Project Summary), 1813 (Primary HTS)]. In kind it is functional.
Another assay addresses Genome polyprotein (dengue virus type 2, UniProt P29990). The assay is described as follows: flavivirus cap methylation enzyme inhibition – biochemical, confirmation dose response, primary screen (AID 588689). The class given is functional.
In assay [9] the target is Serine/threonine-protein phosphatase PP1-alpha catalytic subunit (Homo sapiens, UniProt P62136). The assay is described as follows: inhibition of protein phosphatase 1 activity – biochemical, fluorescence, dose response (AID 2394).
In assay [10] the target is T2, Apoptotic protease-activating factor 1 (Homo sapiens, UniProt O14727).
T2 sequence (O14727 whole entry): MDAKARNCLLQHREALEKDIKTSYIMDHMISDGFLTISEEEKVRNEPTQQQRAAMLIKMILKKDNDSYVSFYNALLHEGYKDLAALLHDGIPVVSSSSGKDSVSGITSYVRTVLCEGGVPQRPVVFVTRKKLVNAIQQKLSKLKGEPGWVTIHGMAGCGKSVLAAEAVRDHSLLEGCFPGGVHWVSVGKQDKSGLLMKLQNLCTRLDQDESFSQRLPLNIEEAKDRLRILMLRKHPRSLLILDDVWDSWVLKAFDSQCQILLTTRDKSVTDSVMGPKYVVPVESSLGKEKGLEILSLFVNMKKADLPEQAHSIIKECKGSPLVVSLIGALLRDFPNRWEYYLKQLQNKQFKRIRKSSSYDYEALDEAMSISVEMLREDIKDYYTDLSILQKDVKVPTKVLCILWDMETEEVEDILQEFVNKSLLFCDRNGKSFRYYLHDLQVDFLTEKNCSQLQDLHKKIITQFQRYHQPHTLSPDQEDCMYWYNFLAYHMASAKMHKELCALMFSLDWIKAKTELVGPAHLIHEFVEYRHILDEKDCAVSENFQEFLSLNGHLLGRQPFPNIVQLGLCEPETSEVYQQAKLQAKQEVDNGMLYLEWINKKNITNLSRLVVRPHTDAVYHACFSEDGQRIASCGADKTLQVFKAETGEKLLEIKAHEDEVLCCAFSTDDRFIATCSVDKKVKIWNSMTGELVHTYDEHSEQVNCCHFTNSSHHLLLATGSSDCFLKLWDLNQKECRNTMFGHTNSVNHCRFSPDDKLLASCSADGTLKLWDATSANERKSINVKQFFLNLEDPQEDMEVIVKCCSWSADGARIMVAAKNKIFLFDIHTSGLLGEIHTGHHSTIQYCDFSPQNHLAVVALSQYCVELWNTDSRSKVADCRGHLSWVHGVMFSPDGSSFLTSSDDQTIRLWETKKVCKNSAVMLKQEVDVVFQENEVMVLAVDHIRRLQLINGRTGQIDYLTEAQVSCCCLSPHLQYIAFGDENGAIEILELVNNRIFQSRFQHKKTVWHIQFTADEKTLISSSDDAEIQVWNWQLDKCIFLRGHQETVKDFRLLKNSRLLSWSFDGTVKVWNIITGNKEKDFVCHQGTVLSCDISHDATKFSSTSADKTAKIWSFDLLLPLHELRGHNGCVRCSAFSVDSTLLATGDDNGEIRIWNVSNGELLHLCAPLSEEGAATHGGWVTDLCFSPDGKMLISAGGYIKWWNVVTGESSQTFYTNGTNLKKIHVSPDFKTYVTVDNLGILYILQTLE
In kind it is functional.

Another assay has as its target Beta-galactosidase (Escherichia coli, UniProt Q8VNN2). The assay is described as follows: detection-enzyme interference by beta-gal modulators – biochemical, E. coli enzyme, set 3, artefact control for CCR6 antagonist project, dose response (AID 504712). In kind it is functional.
The next assay relates to Vero. The assay is described as follows: cells. The settings on record: Chlorocebus sabaeus. In kind it is functional.
Assay [11] concerns the target T3, RNA-binding protein pos-1 (Caenorhabditis elegans, UniProt G5EF15).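 Note: purified POS-1 fused to maltose binding protein made in E. coli; potency of compounds blocking POS-1 binding to fluorescent RNA.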
T3 sequence (G5EF15 whole entry): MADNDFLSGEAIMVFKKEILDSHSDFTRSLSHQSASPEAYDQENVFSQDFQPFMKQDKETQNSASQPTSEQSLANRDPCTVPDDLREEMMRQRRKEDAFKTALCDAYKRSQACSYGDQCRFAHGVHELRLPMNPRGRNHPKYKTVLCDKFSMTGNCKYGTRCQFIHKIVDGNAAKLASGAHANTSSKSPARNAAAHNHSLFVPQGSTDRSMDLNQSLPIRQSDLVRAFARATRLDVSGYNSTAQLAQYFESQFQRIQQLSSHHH
The assay is described as follows: disruptors of C. elegans POS-1 RNA interaction – biochemical, fluorescence polarization, dose response (AID 1964). (Fluorescence polarisation rises when a labelled molecule tumbles more slowly, as on binding a larger partner.)

The target of assay [12] is Serine/threonine-protein phosphatase (Homo sapiens, UniProt Q9BPW0). The assay is described as follows: inhibition of protein phosphatase 5 activity – biochemical, fluorescence, dose response (AID 2395).
Chain of Serine/threonine-protein phosphatase (Q9BPW0 whole entry): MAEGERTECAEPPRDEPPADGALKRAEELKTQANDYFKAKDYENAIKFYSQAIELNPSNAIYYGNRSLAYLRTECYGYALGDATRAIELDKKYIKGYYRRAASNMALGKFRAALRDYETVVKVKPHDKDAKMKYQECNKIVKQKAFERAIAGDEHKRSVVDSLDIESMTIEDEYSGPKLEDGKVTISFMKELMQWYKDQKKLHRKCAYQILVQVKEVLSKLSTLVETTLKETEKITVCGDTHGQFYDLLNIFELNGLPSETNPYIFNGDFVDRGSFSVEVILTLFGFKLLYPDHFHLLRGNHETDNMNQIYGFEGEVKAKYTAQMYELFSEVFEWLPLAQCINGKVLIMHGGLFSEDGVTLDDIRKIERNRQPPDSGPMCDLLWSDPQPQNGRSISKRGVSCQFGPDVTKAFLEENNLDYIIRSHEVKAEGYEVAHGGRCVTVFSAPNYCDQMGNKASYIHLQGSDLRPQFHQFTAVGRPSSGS

Chain of Luciferin 4-monooxygenase (P08659 whole entry): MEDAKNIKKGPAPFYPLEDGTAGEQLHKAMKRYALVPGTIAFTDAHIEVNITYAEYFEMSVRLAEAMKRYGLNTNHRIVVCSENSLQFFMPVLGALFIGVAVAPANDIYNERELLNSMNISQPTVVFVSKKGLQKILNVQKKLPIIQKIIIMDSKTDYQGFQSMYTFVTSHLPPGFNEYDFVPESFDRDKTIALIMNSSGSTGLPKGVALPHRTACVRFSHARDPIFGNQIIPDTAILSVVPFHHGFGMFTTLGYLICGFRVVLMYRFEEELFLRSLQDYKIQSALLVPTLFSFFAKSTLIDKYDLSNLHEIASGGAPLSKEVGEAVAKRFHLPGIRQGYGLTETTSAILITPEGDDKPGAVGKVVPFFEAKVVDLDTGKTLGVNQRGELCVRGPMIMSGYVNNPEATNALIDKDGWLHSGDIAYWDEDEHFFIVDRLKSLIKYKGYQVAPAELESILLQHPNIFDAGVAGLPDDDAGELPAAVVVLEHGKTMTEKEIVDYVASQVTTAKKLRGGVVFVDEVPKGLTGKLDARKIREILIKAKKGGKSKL
Chain of Serine/threonine-protein phosphatase PP1-alpha catalytic subunit (P62136 whole entry): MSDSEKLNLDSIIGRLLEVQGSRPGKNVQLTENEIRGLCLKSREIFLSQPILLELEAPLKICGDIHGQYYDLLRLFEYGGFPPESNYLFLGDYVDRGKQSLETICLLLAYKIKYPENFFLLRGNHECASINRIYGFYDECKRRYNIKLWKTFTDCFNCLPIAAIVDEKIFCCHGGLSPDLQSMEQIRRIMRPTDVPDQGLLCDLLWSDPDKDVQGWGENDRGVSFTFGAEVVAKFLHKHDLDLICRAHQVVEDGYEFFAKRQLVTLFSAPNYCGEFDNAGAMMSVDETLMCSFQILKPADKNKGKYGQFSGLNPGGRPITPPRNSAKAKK
Chain of Genome polyprotein (P29990 2492-3391 limits assumed): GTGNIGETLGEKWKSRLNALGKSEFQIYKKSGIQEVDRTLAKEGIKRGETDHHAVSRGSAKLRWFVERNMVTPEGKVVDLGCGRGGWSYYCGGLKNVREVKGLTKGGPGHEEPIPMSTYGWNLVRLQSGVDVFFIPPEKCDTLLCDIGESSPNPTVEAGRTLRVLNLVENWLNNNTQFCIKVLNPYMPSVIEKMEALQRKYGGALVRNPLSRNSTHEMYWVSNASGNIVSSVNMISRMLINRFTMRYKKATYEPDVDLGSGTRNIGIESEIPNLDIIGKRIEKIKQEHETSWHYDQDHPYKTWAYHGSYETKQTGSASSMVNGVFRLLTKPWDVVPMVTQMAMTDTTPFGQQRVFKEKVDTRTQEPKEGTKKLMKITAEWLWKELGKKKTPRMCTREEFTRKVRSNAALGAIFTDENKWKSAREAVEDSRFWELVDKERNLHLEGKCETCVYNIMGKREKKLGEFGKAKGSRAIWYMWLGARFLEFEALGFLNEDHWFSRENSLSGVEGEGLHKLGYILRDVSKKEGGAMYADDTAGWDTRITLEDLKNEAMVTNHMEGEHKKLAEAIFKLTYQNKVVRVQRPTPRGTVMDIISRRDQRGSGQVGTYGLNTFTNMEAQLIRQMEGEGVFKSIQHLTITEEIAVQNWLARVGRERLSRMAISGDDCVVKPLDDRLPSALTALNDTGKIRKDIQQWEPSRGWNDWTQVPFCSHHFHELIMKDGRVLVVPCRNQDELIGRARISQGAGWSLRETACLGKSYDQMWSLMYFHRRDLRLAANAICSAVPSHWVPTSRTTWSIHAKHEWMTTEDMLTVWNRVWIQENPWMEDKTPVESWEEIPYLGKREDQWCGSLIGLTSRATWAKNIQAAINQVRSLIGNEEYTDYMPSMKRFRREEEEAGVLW
Chain of Beta-galactosidase (Q8VNN2 whole entry): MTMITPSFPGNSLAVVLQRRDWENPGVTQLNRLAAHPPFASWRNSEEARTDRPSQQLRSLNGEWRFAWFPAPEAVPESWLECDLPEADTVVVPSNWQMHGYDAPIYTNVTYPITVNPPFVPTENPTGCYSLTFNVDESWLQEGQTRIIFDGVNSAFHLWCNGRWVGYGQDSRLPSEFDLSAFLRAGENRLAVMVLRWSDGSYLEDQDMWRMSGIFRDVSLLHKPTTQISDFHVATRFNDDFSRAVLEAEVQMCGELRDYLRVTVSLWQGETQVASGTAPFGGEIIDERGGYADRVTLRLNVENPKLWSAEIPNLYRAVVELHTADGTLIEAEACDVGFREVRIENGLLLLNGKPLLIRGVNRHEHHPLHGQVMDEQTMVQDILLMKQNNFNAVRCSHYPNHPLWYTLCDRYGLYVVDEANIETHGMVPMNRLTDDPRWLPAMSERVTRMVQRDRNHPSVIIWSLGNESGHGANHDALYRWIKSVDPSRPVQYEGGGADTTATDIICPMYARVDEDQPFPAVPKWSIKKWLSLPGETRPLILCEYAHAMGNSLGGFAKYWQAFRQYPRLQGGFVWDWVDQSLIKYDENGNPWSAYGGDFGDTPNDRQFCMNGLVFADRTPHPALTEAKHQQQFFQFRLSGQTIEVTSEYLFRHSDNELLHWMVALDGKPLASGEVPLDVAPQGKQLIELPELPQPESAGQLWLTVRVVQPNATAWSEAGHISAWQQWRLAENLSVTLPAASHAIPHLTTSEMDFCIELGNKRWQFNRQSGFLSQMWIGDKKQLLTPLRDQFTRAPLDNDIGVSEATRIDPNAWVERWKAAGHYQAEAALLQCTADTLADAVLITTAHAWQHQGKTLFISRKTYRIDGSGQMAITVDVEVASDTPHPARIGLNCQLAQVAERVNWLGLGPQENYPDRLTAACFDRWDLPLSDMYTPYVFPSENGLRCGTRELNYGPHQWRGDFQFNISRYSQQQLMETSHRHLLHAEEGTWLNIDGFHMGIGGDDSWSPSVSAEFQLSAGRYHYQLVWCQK
Chain of G2/mitotic-specific cyclin-B1 (P14635 whole entry): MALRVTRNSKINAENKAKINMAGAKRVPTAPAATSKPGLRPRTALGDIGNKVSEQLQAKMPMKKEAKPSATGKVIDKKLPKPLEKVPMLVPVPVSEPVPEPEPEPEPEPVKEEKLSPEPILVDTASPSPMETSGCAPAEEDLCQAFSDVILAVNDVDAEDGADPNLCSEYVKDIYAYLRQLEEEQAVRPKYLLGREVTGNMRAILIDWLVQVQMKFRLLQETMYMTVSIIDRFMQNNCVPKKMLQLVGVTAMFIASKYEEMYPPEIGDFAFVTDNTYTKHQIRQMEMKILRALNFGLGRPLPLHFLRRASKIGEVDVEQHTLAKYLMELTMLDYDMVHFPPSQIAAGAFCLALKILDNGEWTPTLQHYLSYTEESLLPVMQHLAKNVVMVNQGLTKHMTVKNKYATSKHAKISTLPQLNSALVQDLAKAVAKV

As usually defined, the AC50 is the concentration giving half of the maximal activity seen. By EC50 is commonly meant the concentration that produces a half-maximal response. Broadly, the IC50 is the concentration that inhibits the measured activity by half. Regarding `COc1ccc(NC(=O)/C(Cl)=C(/Cl)[S+]([O-])Cc2ccccc2)cn1` (stereo not given), the concentration at half-maximal activity (AC50) in [1] was 1.65 µM (active); in assay [6], 5.52 µM (active). In addition, the half-maximal effective concentration (EC50) is > 1.84 µM (active) in [2], > 112 µM (not active) in [4], 0.197 µM (active) in assay [7] and 0.998 µM (active) in [8]. In addition, the IC50 in assay [3] was 36.5 µM (active); in assay [5] it was 33 µM (inactive).

As for `Nc1ccc(N2CCCCC2)c2nonc12`, the IC50 at Genome polyprotein was 40.6 µM (active).

As usually defined, the CC50 is the concentration giving 50% cytotoxicity. In the case of `Cc1ccc(S(=O)(=O)/N=C2\C=C(Nc3cccc(C(=O)O)c3)C(=O)c3ccccc32)c(C)c1`, the concentration for half-maximal inhibition (IC50) in assay [9] was 27.1 µM (not active); in [10], 4.11 µM (active); at Beta-galactosidase it was 43.5 µM (inactive); in assay [12] it was 12.3 µM (not active). Besides, the CC50 in the assay on Vero is > 25 µM (active). Also, in assay [11], the EC50 was 68.6 µM (active).
